Tests used:
[1] = target: T1, ACR-23 (acetylcholine receptor like-23) (Caenorhabditis elegans, UniProt G5EG88); test: cryo-EM structure ([…] Å, betaine co-bound); EC50 by whole-cell patch clamp in HEK293 cells; format: cell-based
T1 construct: homo-pentamer; M3-M4 loop (residues Lys 386 to Gln 437) replaced with bRIL, C-terminal strep tag (cryo-EM); ACR-23 with C-terminal GFP in HEK293 cells (EC50)

[2] = target: T1, ACR-23 (acetylcholine receptor like-23); test: cryo-EM structure ([…] Å); EC50 by whole-cell patch clamp in HEK293 cells; format: cell-based
[3] = target: engineered ACR-23 (acetylcholine receptor like-23), M3-M4 loop replaced with bRIL (Caenorhabditis elegans | not stated) (UniProt G5EG88); test: cryo-EM structure; single particle cryo-EM of purified ACR-23 in DDM/CHS, 20 mM Tris pH 8.0, 150 mM NaCl; apo, with 1.5 mM betaine, or with 1.5 mM betaine and 5 mM monepantel; homo-pentamer in all three states

T1 sequence (G5EG88 20-545): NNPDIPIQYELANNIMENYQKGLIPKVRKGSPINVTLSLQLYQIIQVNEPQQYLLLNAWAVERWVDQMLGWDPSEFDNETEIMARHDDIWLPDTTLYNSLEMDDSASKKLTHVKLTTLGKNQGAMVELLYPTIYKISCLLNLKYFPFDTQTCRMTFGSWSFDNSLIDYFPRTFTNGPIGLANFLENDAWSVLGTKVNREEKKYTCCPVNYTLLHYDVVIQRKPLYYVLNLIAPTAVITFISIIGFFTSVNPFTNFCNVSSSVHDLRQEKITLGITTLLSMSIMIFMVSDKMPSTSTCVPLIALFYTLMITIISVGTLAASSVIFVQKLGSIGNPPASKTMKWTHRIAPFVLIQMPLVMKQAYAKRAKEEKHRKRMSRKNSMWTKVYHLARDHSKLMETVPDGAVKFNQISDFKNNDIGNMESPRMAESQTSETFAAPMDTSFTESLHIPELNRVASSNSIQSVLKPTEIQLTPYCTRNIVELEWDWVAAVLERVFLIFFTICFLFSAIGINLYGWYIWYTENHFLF

## CC(C#N)(COc1cc(C#N)ccc1C(F)(F)F)NC(=O)c1ccc(SC(F)(F)F)cc1 (racemic) [monepantel]
[1]
  EC50: 2.13 µM

## C[N+](C)(C)CC(=O)O [betaine]
[2]
  EC50: ~34.4 µM

## engineered ACR-23 (acetylcholine receptor like-23), M3-M4 loop replaced with bRIL (from UniProt G5EG88 20-385; G5EG88 438-545)
[3]
  stoichiometry N: 5
